According to PubChem BioAssay (NCI):
Several values for one entry are separate records, joined by “and”; a condition that tells them apart may be missing. Identical values can stand only once.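 Cultured in 96-well plates, cells were exposed to test compound for 48 hours across five concentrations. Abbreviation: GI50, concentration required for 50% inhibition of growth. TGI is the concentration that stops growth completely.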

Key:
Assay in all cases: NCI anticancer screen, dose series, 48 h
OVCAR-3 ovarian = system: OVCAR-3 ovarian
OVCAR-5 ovarian = system: OVCAR-5 ovarian
K-562 leukemia = system: K-562 leukemia
OVCAR-4 ovarian = system: OVCAR-4 ovarian
SR leukemia = system: SR leukemia
M14 melanoma = system: M14 melanoma
MOLT-4 leukemia = system: MOLT-4 leukemia
NCI/ADR-RES ovarian = system: NCI/ADR-RES ovarian
NCI-H522 lung = system: NCI-H522 lung
RPMI-8226 leukemia = system: RPMI-8226 leukemia

Row | Structure (SMILES) | TGI (OVCAR-3 ovarian) | TGI (OVCAR-5 ovarian) | TGI (K-562 leukemia) | TGI (OVCAR-4 ovarian) | TGI (SR leukemia) [nM] | TGI (M14 melanoma) | TGI (MOLT-4 leukemia) | TGI (NCI/ADR-RES ovarian) | TGI (NCI-H522 lung) | TGI (RPMI-8226 leukemia) [nM] | GI50 (OVCAR-3 ovarian) [nM] | GI50 (OVCAR-5 ovarian) [nM] | GI50 (K-562 leukemia) [nM] | GI50 (OVCAR-4 ovarian) [nM] | GI50 (SR leukemia) [nM] | GI50 (M14 melanoma) [nM] | GI50 (MOLT-4 leukemia) [nM] | GI50 (NCI/ADR-RES ovarian) [nM] | GI50 (NCI-H522 lung) | GI50 (RPMI-8226 leukemia) [nM]
1 | COc1cc2oc(-c3ccc(O)cc3)cc(=O)c2c(OC)c1OC | > 100000 nM | > 100000 nM | > 100000 nM | > 100000 nM | > 100000 | > 100000 nM | > 100000 nM | > 100000 nM | > 100000 nM | > 100000 | – | – | – | – | – | – | – | – | – | –
2 | Nc1ncc(-c2cnn(CCO)c2)c2scc(-c3ccc(NC(=O)Nc4cccc(F)c4)cc3)c12 | 5870 nM | 3000 nM | 15100 nM | 11400 nM | 1260 | 3310 nM | 2340 nM | 20100 nM | 2290 nM | 2810 | 1160 | 375 | 39.9 | 299 | < 10 | 193 | < 22.6 | 2500 | 449 nM | 454
3 | COC(=O)Nc1nc2ccc(Oc3ccc(NC(=O)Nc4ccccc4)cc3)cc2[nH]1 | 205 nM | > 14400 nM | > 9630 nM | 5680 nM | > 8460 | 2600 nM | > 10300 nM | > 25000 nM | 667 nM | > 10000 | 71.3 | 1060 | 105 | 207 | 74.4 | 168 | 184 | 391 | 68.6 nM | 748
4 | C[N+](C)(C)CC1CCCC(C[N+](C)(C)C)C1=O (centres undefined) | 1360 nM | 7730 nM | 2580 nM | 871 nM | 479 | 2370 nM | 3850 nM | 7270 nM | 53200 nM | 256 | – | – | – | – | – | – | – | – | – | –
5 | CCN1C(=O)CNc2ncc(-c3ccc(-c4ncn[nH]4)nc3C)nc21 | 4490 nM | 8960 nM | > 100000 nM | 1130 nM | 4090 | 2790 nM | 1540 nM | 3580 nM | 2880 nM | 553 | 189 | 169 | 358 | 103 | 253 | 91.7 | 139 | 284 | 147 nM | 45.4
6 | CCN(CC)c1sc(N(CC)CC)c2c1SSSSS2 | 3390 nM | 3200 nM | > 100000 nM | 2460 nM | 998 | 3230 nM | > 100000 nM | 2530 nM | – | 1360 | 1440 | 1520 | 1640 | 697 | 267 | 1450 | 343 | 890 | 416 nM | 366
7 | CCS(=O)(=O)c1ccc(OC)c(Nc2ncc(-c3cccc(C(C)=O)c3)o2)c1 | > 25000 nM | > 25000 nM | > 25000 nM | > 25000 nM | > 25000 | > 25000 nM | > 25000 nM | > 25000 nM | > 25000 nM | > 25000 | > 25000 | > 25000 | 7560 | > 25000 | 15600 | > 25000 | > 25000 | > 25000 | 11000 nM | > 25000
8 | CCC1(O)C(=O)OCc2c1cc1n(c2=O)Cc2cc3ccc(C=O)cc3nc2-1 (centres undefined) | 30600 nM and 23400 nM | 50000 nM and 55200 nM | 50000 nM and 66000 nM | 50000 nM and 23600 nM | – | 50000 nM and 19200 nM | 1780 nM and 1050 nM | 6730 nM and 12600 nM | 15400 nM and 13800 nM | 30400 | 5050 | 10500 | 1390 | 10300 | 64.7 | 1440 | 209 | 1330 | 6800 nM and 2900 nM | –
9 | O=C(Nc1ccc(Cl)cc1)c1cc(-c2ccc(F)cc2)c2sc(=O)[nH]c2n1 | 11400 nM | 7900 nM | 10900 nM | 9120 nM | 10500 | 5130 nM | 4020 nM | 10900 nM | 5420 nM | 2220 | 944 | 2340 | 581 | 1990 | 672 | 1880 | 721 | 2320 | 478 nM | 391
10 | CC(=O)OC1CC(O)C23COC(O)C1(C)C2CC(O)C1(C)C3C(=O)C(O)C2(C)C(c3ccoc3)CC3OC321 (centres undefined) | > 100000 nM | > 100000 nM | – | > 100000 nM | 54.4 | > 59800 nM | 12.7 nM | > 100000 nM | > 100000 nM | 23.7 | 41200 | > 36000 | < 10 | – | < 10 | 79.3 | < 10 | 71900 | 401 nM | < 10
11 | CCN(CC)c1ccc(C(=N)c2ccc(N(CC)CC)cc2)cc1 | 995 nM | 6070 nM | 1670 nM | 15900 nM | 1200 | 1830 nM | 4360 nM | 1830 nM | 765 nM | 2420 | 270 | 1530 | 255 | 1550 | 280 | 524 | 594 | 412 | 193 nM | 358
12 | CCC#CC[C@H]1C/C=C2/C(=O)C=C[C@@H]2C/C=C\CCCC(=O)O1 | 3310 nM | 6920 nM | 4440 nM | 7940 nM | 4260 | 8610 nM | 3960 nM | 17200 nM | 1830 nM | 1860 | 568 | 1740 | 661 | 1500 | 328 | 1480 | 1240 | 1010 | 663 nM | 267
13 | Cc1ccc(C(=NN=C(N)N)c2ccc(C)cc2)cc1 | 568 nM | 13800 nM | 1550 nM | 13800 nM | 1690 | 2150 nM | 4450 nM | 5590 nM | 1190 nM | 4870 | 240 | 1850 | 271 | 1700 | 235 | 415 | 520 | 1850 | 335 nM | 1070
14 | CC(C)c1ccc(C(=O)Nc2sc3c(c2C(N)=O)CCC(=O)C3)cc1 | 1510 nM | 3080 nM | 3830 nM | 1200 nM | 11000 | 2440 nM | 3170 nM | 5570 nM | 1560 nM | 691 | 421 | 1160 | 207 | 329 | 413 | 522 | 461 | 975 | 316 nM | 127
15 | COc1ccc(C(C)c2cc3c(cc2OC)OCO3)cc1 (centres undefined) | 598 nM | > 100000 nM | > 57600 nM | > 100000 nM | > 5040 | 24500 nM | > 60600 nM | 28200 nM | 438 nM | > 48600 | – | – | – | – | – | – | – | – | – | –
16 | CCN(CC)CCCC(C)Nc1c(C)cnc2cc(Cl)c(C)cc12 (centres undefined) | 27400 nM | 18000 nM | 8360 nM | 35700 nM | 3170 | 3190 nM | 8270 nM | 10700 nM | 53100 nM | 9820 | 10100 | 5560 | 1260 | 10200 | – | 1760 | 845 | 3430 | 23000 nM | 2380
17 | CC/C=C\C[C@@H]1C/C=C2/C(=O)C=C[C@H]2C/C=C\CCCC(=O)O1 | 1380 nM | 3780 nM | 724 nM | 2380 nM | 731 | 1030 nM | 2710 nM | 18700 nM | 737 nM | 1330 | 428 | 1510 | 239 | 1040 | 170 | 237 | 551 | 349 | 231 nM | 331
